The text below walks through data of patent US8258169B2, “Pyrazole-4-N-alkoxycarboxamides as microbiocides” (Syngenta Crop Protection, LLC, priority 2008, dated 2012).

By melting point is commonly meant the temperature of the solid-liquid transition.

The structures appear in SMILES notation.

As for `CCON(C(=O)c1cn(C)nc1C(F)F)C(C)Cc1c(Cl)cc(Cl)cc1Cl` (centres unmarked) [Compound 1.032, 3-difluoromethyl-1-methyl-1H-pyrazole-4-carboxylic acid ethoxy-[1-methyl-2-(2,4,6-trichlorophenyl)-ethyl]-amide], the melting point lay within 111 to 114 °C. The same measure for `CON(CCCc1c(Cl)cc(Cl)cc1Cl)C(=O)c1cn(C)nc1C(F)F` [Compound 2.040, 3-difluoromethyl-1-methyl-1H-pyrazole-4-carboxylic acid methoxy-[3-(2,4,6-trichloro-phenyl)-propyl]-amide]: 95 to 96 °C.
